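Five concentrations, 48 hours, 96-well plates. TGI: concentration producing complete growth inhibition.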
Tests used:
Test in all cases: NCI anticancer screen, dose series, 48 h
SNB-78 CNS = tested on: SNB-78 CNS
TK-10 renal = tested on: TK-10 renal
XF 498 CNS = tested on: XF 498 CNS
HOP-18 NSCLC = tested on: HOP-18 NSCLC
M19-MEL melanoma = tested on: M19-MEL melanoma
HT29 colon = tested on: HT29 colon
SK-OV-3 ovarian = tested on: SK-OV-3 ovarian
786-0 renal = tested on: 786-0 renal
SK-MEL-2 melanoma = tested on: SK-MEL-2 melanoma
RPMI-8226 leukemia = tested on: RPMI-8226 leukemia
SN12C renal = tested on: SN12C renal
SR leukemia = tested on: SR leukemia
DLD-1 colon = tested on: DLD-1 colon

Compound	TGI (SNB-78 CNS)	TGI (TK-10 renal)	TGI (XF 498 CNS)	TGI (HOP-18 NSCLC)	TGI (M19-MEL melanoma)	TGI (HT29 colon)	TGI (SK-OV-3 ovarian)	TGI (786-0 renal)	TGI (SK-MEL-2 melanoma)	TGI (RPMI-8226 leukemia)	TGI (SN12C renal)	TGI (SR leukemia)	TGI (DLD-1 colon)
CC(=O)O[C@]12CCCCCC1C1(O)C(O)CCC[C@H]12 (some centres undefined)	> 100 µM	> 100 µM	> 100 µM	> 100 µM	> 100 µM	> 100 µM	> 100 µM	> 100 µM	> 100 µM	> 100 µM	> 100 µM	> 100 µM	–
O=C(NC(Cc1ccc(I)cc1)C(=O)O)c1ccc(I)cc1 (centres undefined)	> 100 µM	–	> 100 µM	> 100 µM	> 100 µM	> 100 µM	> 100 µM	–	> 100 µM	> 100 µM	> 100 µM	–	> 100 µM
CCOC(=O)/C=C(\C)c1ccc(C)cc1C	> 100 µM	> 100 µM	43.2 µM	> 100 µM	–	> 100 µM	–	–	> 100 µM	68.2 µM	> 100 µM	37.3 µM	31.5 µM
Cc1cc(=O)c2c([nH]1)NS(=O)(=O)NC2=O	> 100 µM	> 100 µM	> 100 µM	–	> 100 µM	> 100 µM	> 100 µM	> 100 µM	> 100 µM	> 100 µM	> 100 µM	> 100 µM	> 100 µM
O=C1C=CC(=O)N1Nc1ccc([N+](=O)[O-])cc1[N+](=O)[O-]	> 100 µM	> 100 µM	–	–	> 100 µM	> 100 µM	> 100 µM	> 100 µM	> 100 µM	> 68.7 µM	> 100 µM	> 63.1 µM	> 100 µM
O=c1ccc2cc3ccc4cccc5ccc(c2o1)c3c45	> 100 µM	> 100 µM	56.8 µM	> 100 µM	> 100 µM	> 100 µM	32.6 µM	–	> 100 µM	> 100 µM	> 100 µM	–	> 100 µM
BrC/C=C/C[P+](c1ccccc1)(c1ccccc1)c1ccccc1	> 100 µM	42 µM	43.6 µM	> 100 µM	33.2 µM	–	> 100 µM	> 100 µM	25.7 µM	> 100 µM	> 100 µM	–	–
COCOc1ccc(Cn2c(=O)n(C)c(=O)c3c2ncn3C)cc1[N+](=O)[O-]	> 100 µM	> 100 µM	–	–	> 100 µM	> 100 µM	> 100 µM	> 100 µM	–	> 100 µM	> 100 µM	> 100 µM	> 100 µM
C1=CC2=CC=CC3c4nc5ccc6ccccc6c5nc4C(=C1)C23 (centres undefined)	–	> 100 µM	–	–	–	> 100 µM	> 100 µM	> 100 µM	> 100 µM	> 100 µM	> 100 µM	> 100 µM	–
Brc1cccc(Nc2nc(-c3cccs3)nc3ccc(Br)cc23)c1	–	88 µM	–	–	–	53 µM	> 100 µM	> 100 µM	94.5 µM	> 100 µM	71.3 µM	> 100 µM	–
COc1ccc(C2(CC(C)O)SCCCS2)cc1 (centres undefined)	–	> 100 µM	–	–	–	> 100 µM	> 100 µM	> 100 µM	> 100 µM	> 100 µM	> 100 µM	> 100 µM	–
CCCNC(=O)CCC(C)[C@H]1CCC2C3C(C[C@H](OC(C)=O)[C@@]21C)[C@@]1(C)CCC2(C[C@H]1C[C@H]3OC(C)=O)OOC1(CCC(C)CC1)OO2 (some centres undefined)	–	58.8 µM	–	–	–	> 100 µM	> 100 µM	33.4 µM	52.9 µM	19.4 µM	> 100 µM	36.5 µM	–
C=CCNC(=S)/N=C/c1c(O)c2ccccc2oc1=O	> 100 µM	> 100 µM	> 100 µM	> 100 µM	> 100 µM	> 100 µM	> 100 µM	> 100 µM	> 100 µM	> 100 µM	> 100 µM	–	> 100 µM
Cc1c(S(=O)(=O)/N=C(\N)Nc2ccc(Cl)cc2)sc2ccc(Cl)cc12	–	39.5 µM	–	–	–	38.8 µM	86.8 µM	33.7 µM	33.9 µM	> 100 µM	31.2 µM	> 100 µM	–
O=C(/C=C/c1ccsc1)c1ccsc1	–	74.4 µM	–	–	–	74.8 µM	> 100 µM	47.4 µM	> 100 µM	47.2 µM	40.4 µM	46.5 µM	–
O=P(c1ccccc1)(c1ccccc1)N1O[C@@H](c2ccccc2)C=C[C@H]1c1ccccc1	–	27.8 µM	–	–	–	26.5 µM	33.4 µM	23.3 µM	24.9 µM	56.6 µM	17.5 µM	50.4 µM	–
N#C/C(=C\c1cc(Br)c(O)c(Br)c1)c1cccnc1	–	87.2 µM	–	–	–	> 100 µM	> 100 µM	70.5 µM	44.4 µM	86.3 µM	> 100 µM	76.5 µM	–
O=S(=O)(O)c1cc2ccc1/C=C\c1ccc(cc1S(=O)(=O)O)N=Nc1ccc(c(S(=O)(=O)O)c1)/C=C\c1ccc(cc1S(=O)(=O)O)N=N2	> 100 µM	–	> 100 µM	> 100 µM	> 100 µM	> 100 µM	> 100 µM	–	> 100 µM	> 100 µM	> 100 µM	–	> 100 µM
C/C=C/C=C/c1nc(C#N)c(N)o1	–	> 100 µM	–	–	–	> 100 µM	> 100 µM	> 100 µM	> 100 µM	> 100 µM	> 100 µM	> 100 µM	–
Oc1ccccc1/C=N/c1nc2cc3sc(/N=C/c4ccccc4O)nc3cc2s1	–	> 100 µM	–	–	–	> 100 µM	> 100 µM	> 100 µM	> 100 µM	> 100 µM	> 100 µM	> 42.1 µM	–
O=c1cc(N=P(c2ccccc2)(c2ccccc2)c2ccccc2)n(-c2ccccc2)c(=O)n1-c1ccccc1	–	> 100 µM	–	–	–	> 100 µM	76.1 µM	25.2 µM	58.1 µM	33 µM	75.3 µM	24.6 µM	–
Clc1ccc(-c2nn3c(-c4ccncc4)nnc3s2)cc1	–	> 100 µM	–	–	–	> 100 µM	84.9 µM	61.9 µM	> 100 µM	> 100 µM	> 100 µM	> 100 µM	–

— PubChem BioAssay (NCI)
